Consider twelve compounds from patent US20240373846A1, “Herbicidal Compositions” (SYNGENTA CROP PROTECTION AG, priority 2021, published 2024).

Common to all, as to assay: Post-emergence efficacy
Holding throughout (type): in vivo

Assay [1] deals with Digitaria insularis (TRCIN). The settings on record: 100=total damage to plant, 0=no damage. An excerpt:
(§1) When active ingredients are combined, the activity to be expected (E) for any given active ingredient combination obeys the so-called Colby Formula and can be calculated as follows (Colby, S. R., Calculating synergistic and antagonistic responses of herbicide combination, Weeds, Vol. 15, pages 20-22; 1967): • ppm=milligrams of active ingredient (a.i.) per litre • X=% action by first active ingredient using p ppm of the active ingredient • Y=% action by second active ingredient sing q ppm of the active ingredient.
(§2) According to Colby, the expected action of active ingredients A+B using p+q ppm of active ingredient is represented by the following formula: […]
(§3) If the action actually observed (O) is greater than the expected action E then the action of the combination is super-additive, i.e. there is a synergistic effect. In mathematical terms, synergism corresponds to a positive value for the difference of (O−E). In the case of purely complementary addition of activities (expected activity), said difference (O−E) is zero. A negative value of said difference (O−E) signals a loss of activity compared to the expected activity.
(§4) The efficacy of various compositions of the present invention were tested against plants including the following species: Amaranthus retroflexus (AMARE), Echinochloa crus-gali (ECHCG), Lolium multiflorum (LOLMU), Setaria faberi (SETFA), and Digitaria insularis (TRCIN). The compositions are applied post-emergence, and the tests evaluated at certain days-after-application (DAA) as indicated. The tests were evaluated (100=total damage to plant; 0=no damage to plant), and the results are shown below in tables B1 to B11 below.

The test system of assay [2] is Amaranthus retroflexus (AMARE). The settings on record: 100=total damage to plant, 0=no damage.
Description: as §1, §2, §3, §4

The test system of assay [3] is Echinochloa crus-gali (ECHCG). The settings on record: 100=total damage to plant, 0=no damage.
Description: as §1, §2, §3, §4

For a further assay, the system named is Setaria faberi (SETFA). The settings on record: Table B8, 13 DAA, 100=total damage to plant, 0=no damage.
Description: as §1, §2, §3, §4

Assay [4] concerns Lolium multiflorum (LOLMU). The settings on record: Table B11, 15DAA, 100=total damage to plant, 0=no damage.
Description: as §1, §2, §3, §4

`COc1ccc(-n2c(=O)c(C(=O)C3C(=O)CCCC3=O)nc3c(Cl)cccc32)cc1` [Formula B1d, fenquinotrione]: the Observed in assay [1] (Table B2, 16DAA, 500 g/ha) is 35; in assay [1] (Table B2, 16DAA, 1000 g/ha) it was 43.
For the compound `CS(=O)(=O)c1ccc(C(=O)C2C(=O)CCCC2=O)c([N+](=O)[O-])c1` [Formula B1f, mesotrione], the Observed in assay [2] (Table B3, 13 DAA, 3.75 g/ha) came out at 18.
Regarding `CCOCN(C(=O)CCl)c1c(C)cccc1CC` [Formula B2a, acetochlor], in assay [3] (Table B4, 15DAA, 4000 g/ha), the Observed was found to be 50.
In the case of `Cn1nc(C(F)(F)F)c(CS(=O)(=O)C2=NOC(C)(C)C2)c1OC(F)F` [Formula B2d, pyroxasulfone], the Observed in assay [3] (Table B5, 15DAA, 125 g/ha) turned out to be 38; in assay [3] (Table B5, 15DAA, 250 g/ha), 35.
On to `CCOC(=O)c1ccccc1S(=O)(=O)NC(=O)Nc1nc(Cl)cc(OC)n1` [Formula B3c, chlorimuron-ethyl], for which the Observed is 88 in assay [2] (Table B6, 13DAA, 1.88 g/ha) and 83 in assay [2] (Table B6, 13DAA, 7.5 g/ha).
As to `CCc1cnc(C2=NC(C)(C(C)C)C(=O)N2)c(C(=O)O)c1` (stereo not shown) [Formula B3j, imazethapyr], the Observed in assay [1] (Table B7, 16DAA, 8 g/ha) was 30; in assay [1] (Table B7, 16DAA, 15 g/ha), 53.
Take `COc1cc(OC)nc(NC(=O)NS(=O)(=O)c2ncccc2C(=O)N(C)C)n1` [Formula B3m, nicosulfuron]: the Observed in the assay with Setaria faberi (SETFA) (0.94 g/ha), in the assay on Setaria faberi (SETFA) (1.88 g/ha) and in the assay on Setaria faberi (SETFA) (3.75 g/ha) was 0 each time.
For the compound `CCNc1nc(Cl)nc(NC(C)C)n1` [Formula B4c, atrazine], in assay [3] (Table B9, 20DAA, 500 g/ha), the Observed turned out to be 60.
Turning to `CSc1nnc(C(C)(C)C)c(=O)n1N` [Formula B4g, metribuzin], the Observed in assay [2] (Table B10, 13 DAA, 7.5 g/ha) is recorded as 0.
As for `FC(F)c1cc(-c2c(Cl)cccc2Oc2ncc(Cl)cn2)on1` [Formula B5d, rimisoxafen], the Observed in assay [4] (30 g/ha) is 18.
With `CC#Cc1ccc(C2=C(OC(=O)OC)C3CCC(C3)C2=O)c(OC)c1` (stereo not shown) [Formula Ic], the Observed is listed as 60 in assay [4] (12.5 g/ha); 3 in the assay with Setaria faberi (SETFA) (0.47 g/ha); 0 in the assay with Setaria faberi (SETFA) (0.94 g/ha); 0 with Setaria faberi (SETFA) (1.88 g/ha); 0 in assay [2] (Table B1, 13 DAA, 0.47 g/ha); 0 in assay [2] (Table B1, 13 DAA, 0.94 g/ha). Also, the Observed worked out at 10 in assay [2] (Table B3, 13 DAA, 0.47 g/ha); 0 in assay [2] (Table B3, 13 DAA, 0.94 g/ha); 7.5 in assay [2] (Table B6, 13DAA, 1.88 g/ha); 10 in assay [2] (Table B10, 13 DAA, 0.47 g/ha); 0 in assay [2] (Table B10, 13 DAA, 0.94 g/ha); 0 in assay [2] (Table B10, 13 DAA, 1.88 g/ha). Moreover, in assay [1] (Table B7, 16DAA, 3.125 g/ha), the Observed amounted to 15.
bicyclopyrone [Formula B1b]: the Observed stood at 23 in assay [2] (Table B1, 13 DAA, 0.94 g/ha) and 45 in assay [2] (Table B1, 13 DAA, 1.88 g/ha).
